One data set deals with DLD-1. The data set is described as follows: Cytotoxicity against human DLD-1 cells assessed as cell growth inhibition measured after 24 hrs by MTT assay. In kind it is functional, cell-based. To be noted: DLD-1, 24 h. For orientation: Tetrazolium dyes change colour on reduction, which living cells bring about.
Data set [1] in a line: Cytotoxicity against HEK293 cells assessed as cell growth inhibition measured after 24 hrs by MTT assay. Format: toxicity, cell-based. The settings on record: human.
Data set [2] can be described thus: Cytotoxicity against human HaCaT cells assessed as cell growth inhibition measured after 24 hrs by MTT assay. In kind it is toxicity, cell-based.
Data set [3] in a line: Cytotoxicity against human Kidney epithelial cells assessed as cell growth inhibition measured after 24 hrs by XTT assay. In kind it is toxicity, cell-based.
A short description of data set [4]: Anticancer activity against human CLS-354 cells assessed as cell growth inhibition measured after 24 hrs by MTT assay. In kind it is functional, cell-based. The settings on record: CLS-354, 24 h.
Data set [5] is described as follows: Anticancer activity against cisplatin/camptothecin resistant human CLS-354 cells assessed as cell growth inhibition measured after 24 hrs by MTT assay. Format: functional, cell-based. The settings on record: CLS-354, 24 h.
A short description of data set [6]: Potency index, ratio of cisplatin IC50 to compound IC50 for anticancer activity against cisplatin/camptothecin resistant human CLS-354 cells by MTT assay. Format: functional.
Data set [7] relates to HepG2. The experiment in a line: Cytotoxicity against human HepG2 cells assessed as cell growth inhibition measured after 48 hrs by MTT assay. Format: functional, cell-based. To be noted: HepG2, 48 h.
The next data set relates to SMMC-7721. The data set is described as follows: Cytotoxicity against human SMMC-7721 cells assessed as cell growth inhibition measured after 48 hrs by MTT assay. In kind it is functional, cell-based. To be noted: SMMC-7721, 48 h.
A further data set has as its system Hep 3B2. The experiment in a line: Cytotoxicity against human Hep3B cells assessed as cell growth inhibition measured after 48 hrs by MTT assay. Format: functional, cell-based.
Data set [8] can be described thus: Cytotoxicity against human QSG7701 cells assessed as cell growth inhibition measured after 48 hrs by MTT assay. In kind it is toxicity, cell-based.
Data set [9] deals with A549. The data set is described as follows: Antiproliferative activity against human A549 cells assessed as cell growth inhibition measured after 48 hrs by MTT assay. Format: functional, cell-based. To be noted: A549, 48 h.
For data set [10], the system named is MCF7. The data set is described as follows: Antiproliferative activity against human MCF7 cells assessed as cell growth inhibition measured after 48 hrs by MTT assay. Format: functional, cell-based. The settings on record: MCF7, 48 h.
For data set [11], the system named is HeLa. The experiment in a line: Cytotoxicity against human HeLa cells assessed as cell growth inhibition by MTT assay. Format: functional, cell-based.
The test system of a further data set is HCT-116. The data set is described as follows: Antitumor activity against human HCT-116 cells xenografted in BALB/c nu/nu mouse assessed as reduction in tumor volume at 100 mg/kg/day, ip administered for 20 days measured by caliper relative to control. Format: functional. Set-up: scale not given: the % may be the effect or the level left. To be noted: time 20 day. (In general: Xenograft models place foreign cells or tissue in a host animal.)

The subject of another data set is NCI-H1299. The experiment in a line: Cytotoxicity against human NCI-H1299 cells assessed as cell growth inhibition by Trypan blue staining based analysis. Format: functional. The settings on record: pooled result: one value given for 6 cell lines, strains, targets or settings.
In data set [12] the test system is A549. The data set is described as follows: Antitumour activity against human A549 cells xenografted in mouse assessed as reduction in tumor volume at 3 mg/kg relative to control. In kind it is functional. Set-up: scale not given: the % may be the effect or the level left.
In data set [13] the test system is HeLa. The experiment in a line: Antiproliferative activity against human HeLa cells assessed as cell growth inhibition by MTT assay. In kind it is functional, cell-based.
Data set [14] relates to HeLa. The data set is described as follows: Potency index, ratio of cisplatin IC50 to compound IC50 for antiproliferative activity against human HeLa cells by MTT assay. Format: functional.
The test system of data set [15] is HeLa. The data set is described as follows: Antiproliferative activity against human HeLa cells assessed as cell growth inhibition by WST-1 assay. Format: functional, cell-based.
Data set [16] deals with MCF7. The data set is described as follows: Cytotoxicity against human MCF7 cells assessed as cell growth inhibition measured after 72 hrs by MTT assay. Format: functional, cell-based. To be noted: MCF7, 72 h.
The next data set relates to MDA-MB-231. The experiment in a line: Cytotoxicity against human MDA-MB-231 cells assessed as cell growth inhibition measured after 72 hrs by MTT assay. In kind it is functional, cell-based. The settings on record: MDA-MB-231, 72 h.
Data set [17] deals with HepG2. The experiment in a line: Cytotoxicity against human HepG2 cells assessed as cell growth inhibition measured after 72 hrs by MTT assay. In kind it is functional, cell-based. To be noted: HepG2, 72 h.
The nature of data set [18]: Cytotoxicity against mouse 3T3-L1 cells assessed as cell growth inhibition measured after 72 hrs by MTT assay. Format: toxicity, cell-based.
Data set [19] is described as follows: Cytotoxicity against human MCF-10A cells assessed as cell growth inhibition measured after 72 hrs by MTT assay. Format: toxicity, cell-based.
Data set [20] has as its system HeLa. The experiment in a line: Cytotoxicity against human HeLa cells assessed as cell growth inhibition measured after 72 hrs by MTT assay. Format: functional, cell-based. To be noted: pooled result: one value given for 3 cell lines, strains, targets or settings.

SMILES strings stand for the structures.

For orientation: IC50 means the concentration needed to halve the response being measured. In the case of `COc1ccc2c(c1)[nH]c1c3c(c(C)cc12)OC(C)(C)C=C3`, in the data set with DLD-1, the IC50 was determined as 17.9 µM. Besides, the IC50 at 24 h in data set [1] and in data set [2] was > 100 µM each time.
With `CN(C)CCCNC(=O)c1ccc(-n2cc(-c3ccc4c(c3)c3ccccc3n4CCCN(C)C)nn2)cc1`, the IC50 at 24 h in data set [3] was > 30 µM.
Consider `CC(C)=CCC[C@@]1(C)C=Cc2c(ccc3c2[nH]c2cc(O)c(C)cc23)O1`, for which the IC50 is 14.4 µM in data set [4] and 16 µM in data set [5]. In data set [6], the “Ratio IC50” value turned out to be 2.1.
For `CCOc1ccc2c(c1)c1c(n2CCN2CCNCC2)-c2cc(C(C)C)ccc2[C@@]2(C)CCC[C@@](C)(C(=O)OC)C12` (stereo partly specified), the IC50 in the data set on HepG2 [7], with SMMC-7721 and in the data set on Hep 3B2 was 0.51 µM throughout. In addition, the IC50 at 48 h in [8] was 12.5 µM.
Turning to `Cn1c2ccccc2c2cc(C3NCCc4c3[nH]c3ccccc43)ccc21` (stereo unspecified), the IC50 in the data set on A549 [9] came to 5.04 µM; with MCF7 [10], 5.48 µM.
As to `CCn1c2ccccc2c2cc(/C=N/NC(=O)c3ccccc3Cl)ccc21`, the IC50 in the data set on HeLa [11] came to 3.12 µM. The Activity with HCT-116 is on record as 35%.
As to `CCn1c2ccccc2c2cc(NC(=O)NCCN3CCN(C(=O)c4ccco4)CC3)ccc21`, in the data set on NCI-H1299, the IC50 is 1.78 µM. In addition, the Activity with A549 [12] is recorded as 65%.
Regarding `CCCCCCCCn1c2ccc(/C=C/C(=O)c3ccccc3[N+](=O)[O-])cc2c2cc(C(C)=O)ccc21`, the IC50 with HeLa [13] came to 5.64 µM. The “Ratio IC50” value with HeLa [14] amounted to 2.
For `CC(C)=CCCC1(C)C=Cc2c(c(C)cc3c2[nH]c2c(-c4c(O)ccc5c4[nH]c4c6c(c(C)cc45)OC(C)(CCC=C(C)C)C=C6)c(O)ccc23)O1` (stereo unspecified), the 50% inhibitory concentration (IC50) in the data set on HeLa [15] came out at 20 µM.
As for `COc1cc(NC(=O)Nc2cc(C)c3[nH]c4ccc(C)cc4c3c2C)cc(OC)c1OC`, the IC50 with MCF7 [16], in the data set with MDA-MB-231, in the data set with HepG2 [17] and with HeLa [20] was 1.93 µM in each case. Besides, the values for the IC50 at 72 h in data set [18] and in data set [19] were 141 µM and 210 µM, respectively.

Values taken from ChEMBL document CHEMBL5126512, “Current status of carbazole hybrids as anticancer agents” (Eur J Med Chem, 2022).
